From US20260364088A1, “TASL MIMICKING MOLECULES AND APPLICATIONS THEREOF” (CEMM - FORSCHUNGSZENTRUM FÜR MOLEKULARE MEDIZIN GMBH, priority 2022, published 2026) come the findings set out here.

Read-outs that look alike come from different tables or passages of the source.

In this assay the target is T1, THP1 dual cell (Homo sapiens, UniProt Q8N697).
T1 construct: R848 (TLR7/8)-stimulated ISRE reporter
Put plainly: THP1 DUAL/ISRE cell reporter assay (R848 stimulated). The class given is cell-based. As to the method:
CAL-1, THP1 or human primary cells were incubated with dTASL1 and other identified compounds (or the corresponding volume of DMSO vehicle) for 24 h or 48 h at the indicated concentration and subsequently stimulated with R848 (5 μg/ml) for the indicated time. Supernatant or cells were recovered for ELISA, SDS-PAGE or microscopy-based analysis.
THP1 DUAL cells (1×10^5 cells per 96 well) were incubated with compounds for 24 h or 48 h, and subsequently stimulated for 20 h as indicated. Cell culture supernatant were collected, cleared of residual cells by centrifugation and analyzed for NF-κB and ISRE reporter activity according to the manufacturer's instructions. For experiments in 384-well format, compounds were pre-plated at defined concentrations and THP1 dual cells were added at 800 k/well concentration in […]. After incubation for 24 h or 48 h cells were stimulated with […] of a 25 μg/ml stock of R848 or 0.5 μg/ml Pam3CKS4 5× stocks as indicated for 20 h and detected by directly adding Quanti-Luc Plus (Invivogen) solution to the plates, according to the manufacturer's instructions and without adding stabilizer solution. Quanti-Blue detection was carried out according to the manifacturers instructions, with QB reagent and buffer (Invivogen) dissolved in 30 ml water, instead of the 100 ml used for standard detection.
Based on potency and kinetics, the compound C5 was selected for further characterization (FIG. 2E). C5 is an elongated molecule comprised of an aromatic 2-(4-ethoxyphenyl)-quinoline moiety followed by an amide bond and an aliphatic 2-methyl-1-propylpiperidine (FIG. 2F). To validate the scaffold and explore the chemical space at the aliphatic end of the compound, five analogues and an independently synthesized batch of C5 were obtained. […] Therefore the C5 compound was selected, which was named dTASL1 as its activity leads to TASL degradation, to assess effects on TLR7/8-induced signaling and responses.
The following compounds were assayed for their activity in the degradation assay (THP1 DUAL/ISRE cell reporter assay), as described herein: […]
(In general: In a reporter assay the amount or activity of a reporter protein is the signal.)

Where [1] appears, read: 24 h treatment before R848 stimulation, read-out: IC50 24 h.
The mark [2] stands for this setting: 48 h treatment before R848 stimulation, read-out: IC50 48 h.

T1 sequence (Q8N697 whole entry): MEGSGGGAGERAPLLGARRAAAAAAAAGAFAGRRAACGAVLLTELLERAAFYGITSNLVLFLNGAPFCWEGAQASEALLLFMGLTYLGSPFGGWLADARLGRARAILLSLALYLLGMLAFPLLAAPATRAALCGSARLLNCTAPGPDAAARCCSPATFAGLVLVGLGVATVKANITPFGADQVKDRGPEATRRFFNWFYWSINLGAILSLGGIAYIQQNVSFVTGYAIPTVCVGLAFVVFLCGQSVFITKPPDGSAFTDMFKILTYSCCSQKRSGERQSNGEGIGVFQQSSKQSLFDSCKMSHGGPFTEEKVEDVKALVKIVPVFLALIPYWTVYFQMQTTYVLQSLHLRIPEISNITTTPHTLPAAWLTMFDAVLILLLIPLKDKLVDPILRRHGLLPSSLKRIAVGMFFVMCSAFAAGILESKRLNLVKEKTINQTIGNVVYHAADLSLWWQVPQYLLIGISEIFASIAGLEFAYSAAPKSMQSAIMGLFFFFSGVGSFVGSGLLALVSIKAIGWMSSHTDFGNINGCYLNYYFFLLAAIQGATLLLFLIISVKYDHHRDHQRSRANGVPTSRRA

By IC50 is commonly meant the concentration needed to halve the response being measured. For the compound `CCOc1ccc(-c2cc(C(=O)NCCCN3CCCCCC3)c3ccccc3n2)cc1` [dTASL1-a2], the IC50 under setting [1] stood at 3.49 µM and the IC50 under setting [2] is 2.96 µM.
The matching figures for `CCOc1ccc(-c2cc(C(=O)NCCCN3CCCCC3)c3ccccc3n2)cc1` [dTASL1-a4]: 4.16 µM and 2.39 µM.
